Reference: ChEMBL document CHEMBL1143899, “Aryl-indolyl maleimides as inhibitors of CaMKIIdelta. Part 3: Importance of the indole orientation” (Bioorg Med Chem Lett, 2008)
pIC50: −log10 of the molar value.

What was measured:
[1] = target: T1, Calcium/calmodulin-dependent protein kinase type II subunit delta (Homo sapiens, UniProt Q13557); test: Inhibition of CaMK2delta
[2] = target: T1, Calcium/calmodulin-dependent protein kinase type II subunit delta; test: Inhibition of CaMK2delta using freshly stock solution of compound
[3] = target: T1, Calcium/calmodulin-dependent protein kinase type II subunit delta; test: Inhibition of CaMK2delta using 3 weeks old stock solution of compound

T1 sequence (Q13557 whole entry): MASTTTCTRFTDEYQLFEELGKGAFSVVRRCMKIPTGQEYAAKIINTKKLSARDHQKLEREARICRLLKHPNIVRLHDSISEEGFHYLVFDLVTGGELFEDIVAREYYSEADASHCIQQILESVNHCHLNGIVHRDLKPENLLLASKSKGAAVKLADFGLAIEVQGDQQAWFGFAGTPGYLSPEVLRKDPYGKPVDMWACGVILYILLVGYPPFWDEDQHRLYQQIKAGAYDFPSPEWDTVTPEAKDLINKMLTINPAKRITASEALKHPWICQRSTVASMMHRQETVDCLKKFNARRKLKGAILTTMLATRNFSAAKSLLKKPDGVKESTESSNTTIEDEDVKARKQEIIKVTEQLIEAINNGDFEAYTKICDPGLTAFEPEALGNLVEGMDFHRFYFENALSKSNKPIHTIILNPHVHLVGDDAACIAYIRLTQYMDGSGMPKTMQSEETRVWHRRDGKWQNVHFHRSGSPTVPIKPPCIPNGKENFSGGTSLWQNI

Row | Structure (SMILES) | pIC50 [1] | pIC50 [2] | pIC50 [3]
1 | CNCCc1cn(C2=C(c3c[nH]c4ccccc34)C(=O)NC2=O)c2ccccc12 | 6.82 |  | 
2 | NCCCn1cc(C2=C(c3csc4ccccc34)C(=O)NC2=O)c2ccccc21 |  | 6.44 | > 7.41
3 | CNCCc1cn(C2=C(c3c[nH]c4ccc(C(=O)N(C)C)cc34)C(=O)NC2=O)c2ccccc12 | 4.93 |  | 
4 | NCCc1cn(C2=C(c3c[nH]c4ccc(C(F)(F)F)cc34)C(=O)NC2=O)c2ccccc12 | 7.49 |  | 
5 | CCc1ccc2[nH]cc(C3=C(n4cc(CCNC)c5ccccc54)C(=O)NC3=O)c2c1 | 6.96 |  | 
6 | Cc1[nH]c2ccccc2c1C1=C(c2cn(CCCN)c3ccccc23)C(=O)NC1=O | 6.12 |  | 
7 | NCCc1cn(C2=C(c3c[nH]c4ccc(Cl)cc34)C(=O)NC2=O)c2ccccc12 | 8.00 |  | 
8 | CNCCc1cn(C2=C(c3c[nH]c4ccc(C(=O)O)cc34)C(=O)NC2=O)c2ccccc12 | 6.42 |  | 
9 | CNCCc1cn(C2=C(c3c[nH]c4ccc(C(=O)OC)cc34)C(=O)NC2=O)c2ccccc12 | 7.68 |  | 
10 | CN(C)CCc1cn(C2=C(c3c[nH]c4ccccc34)C(=O)NC2=O)c2ccccc12 | 6.25 |  | 
11 | CN(C)Cc1cn(C2=C(c3c[nH]c4ccccc34)C(=O)NC2=O)c2ccccc12 | 5.62 |  | 
12 | CNCCc1cn(C2=C(c3c[nH]c4ccc(C(=O)NC)cc34)C(=O)NC2=O)c2ccccc12 | 6.55 |  | 
13 | NCCc1cn(C2=C(c3c[nH]c4ccc(F)cc34)C(=O)NC2=O)c2ccccc12 | 7.42 |  | 
14 | N#Cc1ccc2[nH]cc(C3=C(n4cc(CCN)c5ccccc54)C(=O)NC3=O)c2c1 | 7.34 |  | 
15 | NCCCn1cc(C2=C(n3ccc4ccccc43)C(=O)NC2=O)c2ccccc21 | 5.34 |  | 
16 | NCCCn1cc(C2=C(c3ccccc3)C(=O)NC2=O)c2ccccc21 |  | 6.46 | 6.64
17 | NCCCn1cc(C2=C(c3c[nH]c4ccccc34)C(=O)NC2=O)c2ccccc21 | 6.42 |  | 
18 | CNCCc1cn(C2=C(c3c[nH]c4ccc(C(N)=O)cc34)C(=O)NC2=O)c2ccccc12 | 6.72 |  | 
19 | CNCCc1cn(C2=C(c3c[nH]c4ccc(Cl)cc34)C(=O)NC2=O)c2ccccc12 | 7.89 |  | 
20 | COc1ccc2[nH]cc(C3=C(n4cc(CCN)c5ccccc54)C(=O)NC3=O)c2c1 | 6.77 |  | 
21 | NCCc1cn(C2=C(c3c[nH]c4ccccc34)C(=O)NC2=O)c2ccccc12 | 6.96 |  | 
